{"source": "patent US20230413887A1", "about": "“2'-FUCOSYLLACTOSE FOR USE IN STIMULATING F. PRAUSNITZII ABUNDANCE” (FrieslandCampina Nederland B.V., priority 2020, published 2023)", "key": {"[1]": {"system": "Faecalibacterium prausnitzii", "test": "in vitro incubation of 2′-FL with fecal inoculum of adult and elderly subjects, 16S rRNA microbiota composition", "type": "cell-based, human", "settings": "2′-FL 10 mg/ml, 10% (v/v) fecal inoculum, samples 0-24 h, adults 25-50 yrs and 70-79 yrs", "experimental": "A group of twelve randomly contacted adults—three men and three women aged 25-50 yrs and three men and three women aged 70-79 yrs—donated their fecal material for an in vitro study. Anoxically cryo-conserved fecal inoculum was defrosted and transferred to a 96% N2 and 4% H2 filled anaerobic chamber. Incubation of 2′-FL (10 mg/ml) was done with 10% (v/v) fecal inoculum in duplicate, while incubations without fecal inoculum and without carbohydrates served as controls using the standard ileal efflux medium. Samples were collected 0 h, 4 h, 10 h and 24 h after inoculation.\nThree aliquots of 1 ml from each culture bottle were then distributed into 1.5 ml Eppendorf tubes. One of these aliquots was heated at 100° C. for 5 min to determine carbohydrates in the supernatant. Afterwards, all samples were centrifuged at 4° C. at 18600 relative centrifugal force (rcf) for 10 min. The supernatants from the other two tubes were pooled and stored at −20° C. for metabolite measurement, while the remaining pellets were stored at −80 C for microbiota composition analysis.\nThe microbiota composition was determined by sequencing of barcoded 16S ribosomal RNA (rRNA) gene amplicons using Illumina Hiseq2500 (2×150 bp). […]"}, "F. prausnitzii [2]": {"system": "F. prausnitzii", "settings": "co-culture with Bifidobacterium longum subsp. infantis; cited from earlier work"}, "F. prausnitzii [3]": {"system": "F. prausnitzii", "settings": "cited from earlier work"}, "F. prausnitzii [4]": {"system": "F. prausnitzii", "settings": "rats; cited from earlier work"}}, "note": "“Also recorded” adds a separate entry of the source."}
{"substance": "2′-fucosyllactose [2′-FL]", "values": [{"measurement": "abundance of F. prausnitzii as compared to control medium without 2′-FL", "setting": "[1]", "result": "increase the abundance; also recorded: higher abundance"}, {"measurement": "effect on F. prausnitzii abundance in co-culture", "setting": "F. prausnitzii [2]", "result": "not able to increase"}, {"measurement": "effect on F. prausnitzii abundance in monocultures", "setting": "F. prausnitzii [3]", "result": "does not affect"}, {"measurement": "F. prausnitzii abundance as a result of 2′-FL administration", "setting": "F. prausnitzii [4]", "result": "decrease"}]}
